Measurements taken from patent US20250051375A1, “ANTI-HIV COMPOUNDS” (Gilead Sciences, Inc., priority 2023, published 2025).
≈ marks a conversion by molar mass, not a printed value. Read-outs that look alike come from different tables or passages of the source.

Tests used:
[1] = Intestinal S9 Assay (human GI S9); format: in vitro ADME; conditions: 1.0 mg/mL S9 protein; for half-life at 2 μM: human, TRIS pH 7.4, read-out: Human GI S9 T½; for Human GI S9 [Intermediate A] / Human GI S9 [Intermediate A] %: 2 μM, TRIS pH 7.4
Description: (§1) Reagents. Stock solutions of test compounds in dimethyl sulfoxide (DMSO) having a final concentration of 10 mM were prepared and used in all experiments. Sekisui XenoTech (Kansas City, KS) provided pooled intestinal S9 fractions. All other chemicals were purchased from Sigma-Aldrich (St. Louis, MO) or VWR (West Chester, PA). Internal Standard/Quench (IS/Q) used to stop reactions was 100 nM labetalol in (by volume) formic acid (1%) and acetonitrile (99%).
(§2) Intestinal S9 Assay: For each test compound, an aliquot of the test compound was added to S9 stock diluted with TRIS buffer (100 mM TRIS, 1 mM ZnCl2, 1 mM MgCl2), pH 7.4, to obtain an incubation protein concentration of 1.0 mg/mL. The incubation was initiated by the addition of the substrate to the S9 reaction mixture to a final concentration of 2 μM. At 0, 10, 20, 30, 60 and 120 min, 25 μL aliquots of the reaction mixture were transferred to plates containing 225 μl of IS/Q solution. After quenching, the plates were centrifuged at 3000×g for 30 minutes. 150 μL aliquots of each supernatant were transferred to new plates and 150 μL water was added. Aliquots (10 μL) of the prepared samples were analyzed on a Thermo Q-Exactive mass spectrometer as described below.
(§3) Liquid Chromatography-Mass Spectrometry: Quantification of test compounds and control substrate was performed by analyte/internal standard peak area ratio (PAR) values measured on a Thermo Q-Exactive mass spectrometer coupled to a Dionex UltiMate 3000 HPLC with a Leap Technologies HTC PAL autosampler. The column used for analysis was a Thermo Scientific Hypersil GOLD (1.9 μm particle size, 50×2.1 mm). Mobile phase A consisted of 0.1% (v/v) formic acid in water. Mobile phase B consisted of 0.1% (v/v) formic acid in acetonitrile. Elution of analytes was achieved by a series of linear gradients varying the proportions of A and B. The mass spectrometer was calibrated on a weekly basis and mass tolerance of 5 ppm was used.
(§4) Data Analysis. Metabolic stabilities were determined by measuring the rates of disappearance of test compound and positive control substrate. Data (% of substrate remaining) were plotted on a semi-log scale and fitted using an exponential decline model:
(§5) where • Ct% of substrate remaining at time=t • C0% of substrate remaining at time=0 • t time • T½ half-life • The Half-life (T½) is determined by the following equation:
(§6) [formula] • Assuming a first-order reaction, the slope (k) is extrapolated from the aforementioned plotted data.

PBS Stability Assay = format: physicochemical; conditions: buffer, pH 7.4, 2 μM, phosphate buffered saline pH 7.4; read-out: PBS T½
Outline: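 Half-life derives from first-order exponential decline of % compound remaining, quantified by LC-MS analyte/internal-standard peak-area ratio. Compound (2 μM final) sat in pH 7.4 phosphate-buffered saline, with aliquots quenched into acidified acetonitrile containing labetalol from 0 to 120 min.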

physchem = conditions: 23 °C, pH 6.5, fassif, thermodynamic from solid; for solubility: FaSSIF (pH 6.5) solubility, FaSSIF pH 6.5, dose 5 mg/mL, 2-hour incubation, ambient temperature
Outline: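 Concentration measured by HPLC-UV after solid compound was dosed at 5 mg/mL into pH 6.5 fasted-state simulated intestinal fluid containing taurocholate and lecithin (4:1 molar) and vortexed.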

[2] = Intestinal S9 Assay (dog GI S9); format: in vitro ADME; conditions: 1.0 mg/mL S9 protein; for half-life at 2 μM: dog, TRIS pH 7.4, read-out: Dog GI S9 T½; for Dog GI S9 [Intermediate A] / Dog GI S9 [Intermediate A] %: 2 μM, TRIS pH 7.4
Description: as §1, §2, §3, §4, §5, §6

[3] = target: bovine intestinal alkaline phosphatase (Bos taurus (Bovine), UniProt P19111); assay: BiALP: conversion by bovine intestinal alkaline phosphatase; format: in vitro ADME; conditions: 2 μM substrate, 100 ng/mL iALP, Tris pH 7.8, 37° C., 60 minutes; for [Intermediate A] or [Amprenavir]: parent formed
bovine intestinal alkaline phosphatase, sequence (P19111 20-506): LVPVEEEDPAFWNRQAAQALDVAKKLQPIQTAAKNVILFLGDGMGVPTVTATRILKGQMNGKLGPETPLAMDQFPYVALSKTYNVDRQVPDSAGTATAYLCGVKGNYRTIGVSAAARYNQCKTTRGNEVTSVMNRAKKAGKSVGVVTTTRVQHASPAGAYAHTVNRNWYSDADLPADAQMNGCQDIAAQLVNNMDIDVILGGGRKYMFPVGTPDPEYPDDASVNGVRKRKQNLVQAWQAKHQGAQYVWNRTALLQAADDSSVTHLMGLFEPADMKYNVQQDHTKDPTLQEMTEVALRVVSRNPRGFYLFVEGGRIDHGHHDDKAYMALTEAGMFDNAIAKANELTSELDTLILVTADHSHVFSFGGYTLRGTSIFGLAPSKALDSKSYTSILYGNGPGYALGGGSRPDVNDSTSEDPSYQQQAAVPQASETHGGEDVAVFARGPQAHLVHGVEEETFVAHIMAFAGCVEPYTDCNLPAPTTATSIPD
Outline: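 LC-MS (positive mode) quantified analyte/internal-standard peak area ratios, referenced to 2 μM parent product. This followed a 60 min, 37° C reaction of 2 μM substrate in Tris buffer pH 7.8 (1 mM MgCl2, 1 mM ZnCl2) containing 100 ng/mL iALP or buffer alone, run in triplicate.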

HIV-1 IIIB strain = assay: MT-4 HIV Wild Type Virus Infection Assay (IIIB Virus); format: cell-based; conditions: Human immunodeficiency virus 1, IIIB, MT4, 120 h, MT-4 cells acutely infected with HIV-1 IIIB, 5 day incubation, Cell-titer glo
Outline: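 MT-4 cells at 2×10^6 cells/ml in RPMI/10% FBS were acutely infected with HIV-1 IIIB for 1 h at 37° C, diluted 25× and added to serially diluted compounds. After 5 days at 37° C, viability read by CellTiter-Glo luminescence; EC50 from dose-response curves.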

SMILES: COC(=O)N[C@H](C(=O)N[C@@H](Cc1ccc(C#Cc2cnc(N3CC4CCC(C3)N4C3COC3)nc2)cc1)[C@H](CN(Cc1c(F)cc(-c2ccn(C(F)F)n2)cc1F)NC(=O)[C@@H](NC(=O)OC)C(C)(C)C(F)(F)F)OC(=O)CC(C)(C)c1c(CC(=O)O)cc(C)cc1OP(=O)(O)O)C(C)(C)C(F)(F)F [Example 4]
- half-life at 2 μM [1]: 7.74 h
- half-life at 2 μM (PBS Stability Assay): 9.43 h
- solubility (physchem): 272 µg/mL (≈ 183 µM)
- half-life at 2 μM [2]: 1.69 h
- [Compound] [3]: 1627.4 nM
- EC50 (HIV-1 IIIB strain; read-out: EC50): 20.7 nM

SMILES: COC(=O)N[C@H](C(=O)N[C@@H](Cc1ccc(C#Cc2cnc(N3CC4CCC(C3)N4C3COC3)nc2)cc1)[C@H](CN(Cc1c(F)cc(-c2ccn(C(F)F)n2)cc1F)NC(=O)[C@@H](NC(=O)OC)C(C)(C)C(F)(F)F)OC(=O)CC(C)(C)c1c(CC(=O)O)cccc1OP(=O)(O)O)C(C)(C)C(F)(F)F [Example 5, 2-(2-((5S,10S)-8-(4-(1-(difluoromethyl)-1H-pyrazol-3-yl)-2,6-difluorobenzyl)-14-methyl-10-((1S)-2-(4-((2-(8-(oxetan-3-yl)-3,8-diazabicyclo[3.2.1]octan-3-yl)pyrimidin-5-yl)ethynyl)phenyl)-1-((S)-4,4,4-trifluoro-2-((methoxycarbonyl)amino)-3,3-dimethylbutanamido)ethyl)-3,6,12-trioxo-5-(1,1,1-trifluoro-2-methylpropan-2-yl)-2,11-dioxa-4,7,8-triazapentadecan-14-yl)-3-(phosphonooxy)phenyl)acetic acid]
- half-life at 2 μM [1]: 11.6 h
- half-life at 2 μM (PBS Stability Assay): 7.62 h
- solubility (physchem): < 1000 µg/mL
- half-life at 2 μM [2]: 0.74 h
- [Compound] [3]: 1638.1 nM
- EC50 (HIV-1 IIIB strain; read-out: EC50): 73.7 nM

SMILES: COC(=O)N[C@H](C(=O)N[C@@H](Cc1ccc(C#Cc2cnc(N3CC4CCC(C3)N4C3COC3)nc2)cc1)[C@H](CN(Cc1c(F)cc(-c2ccn(C(F)F)n2)cc1F)NC(=O)[C@@H](NC(=O)OC)C(C)(C)C(F)(F)F)OC(=O)CC(C)(C)c1c(CC(=O)N[C@@H](CCC(=O)O)C(=O)O)cccc1OP(=O)(O)O)C(C)(C)C(F)(F)F [Example 6]
- Human GI S9 [Intermediate A] [1]: 363.6 nM
- Human GI S9 [Intermediate A] % [1]: 28.2%
- half-life at 2 μM [1]: 2.57 h
- half-life at 2 μM (PBS Stability Assay): 10.9 h
- solubility at 2 h (physchem): 3710 µg/mL (≈ 2320 µM)
- Dog GI S9 [Intermediate A] [2]: 1236 nM
- Dog GI S9 [Intermediate A] % [2]: 93.8%
- half-life at 2 μM [2]: 0.393 h
- [Compound] [3]: 1304.1 nM
- biALP Intermediate A or [Amprenavir] (% of total) [3]: 19 % of total
- [Intermediate A] or [Amprenavir] [3]: 306.6 nM
- EC50 (HIV-1 IIIB strain): 20.7 nM

SMILES: COC(=O)N[C@H](C(=O)N[C@@H](Cc1ccc(C#Cc2cnc(N3CC4CCC(C3)N4C3COC3)nc2)cc1)[C@H](CN(Cc1c(F)cc(-c2ccn(C(F)F)n2)cc1F)NC(=O)[C@@H](NC(=O)OC)C(C)(C)C(F)(F)F)OC(=O)CC(C)(C)c1c(CC(=O)NCC(=O)O)cccc1OP(=O)(O)O)C(C)(C)C(F)(F)F [Example 7]
- Human GI S9 [Intermediate A] [1]: 404.7 nM
- Human GI S9 [Intermediate A] % [1]: 31.3%
- half-life at 2 μM [1]: 2.27 h
- half-life at 2 μM (PBS Stability Assay): 8.72 h
- solubility at 2 h (physchem): 5490 µg/mL (≈ 3590 µM)
- Dog GI S9 [Intermediate A] [2]: 1224.2 nM
- Dog GI S9 [Intermediate A] % [2]: 91%
- half-life at 2 μM [2]: 0.457 h
- [Compound] [3]: 1590.8 nM
- biALP Intermediate A or [Amprenavir] (% of total) [3]: 9.4 % of total
- [Intermediate A] or [Amprenavir] [3]: 164.7 nM
- EC50 (HIV-1 IIIB strain): 23.2 nM

SMILES: COC(=O)N[C@H](C(=O)N[C@@H](Cc1ccc(C#Cc2cnc(N3CC4CCC(C3)N4C3COC3)nc2)cc1)[C@H](CN(Cc1c(F)cc(-c2ccn(C(F)F)n2)cc1F)NC(=O)[C@@H](NC(=O)OC)C(C)(C)C(F)(F)F)OC(=O)CC(C)(C)c1c(CC(=O)N2CC[C@@H]2C(=O)O)cc(C)cc1OP(=O)(O)O)C(C)(C)C(F)(F)F [Example 9]
- half-life at 2 μM [1]: 8.93 h
- half-life at 2 μM (PBS Stability Assay): 10.4 h
- solubility at 2 h (physchem): 2300 µg/mL (≈ 1470 µM)
- half-life at 2 μM [2]: 1.14 h
- [Compound] [3]: 2004.9 nM
- biALP Intermediate A or [Amprenavir] (% of total) [3]: 1.8 % of total
- [Intermediate A] or [Amprenavir] [3]: 36.5 nM
- EC50 (HIV-1 IIIB strain): 241 nM
